{"source": "patent US11344527B2", "about": "“Methods and compositions for treating cancer” (Sutter West Bay Hospitals, priority 2007, dated 2022)", "key": {"MDA-MB231 cells [1]": {"tested_on": "MDA-MB231 cells", "experiment": "Boyden chamber invasion assay, MDA-MB231", "type": "cell-based, human", "details": "0.1, 1.0 or 1.5 μM; FIG. 1A", "protocol": "Invasion is an important step towards breast cancer cell metastasis. Therefore, the effects of several cannabinoids were tested on their ability to modulate the migratory and invasiveness activity of the most aggressive human breast cancer cell line, MDA-MB231, in a reconstituted basement membrane in a Boyden chamber."}, "SF126 cells": {"tested_on": "SF126 cells", "experiment": "MTT cell proliferation assay, SF126 GBM cells", "type": "cell-based, human", "details": "Homo sapiens, read-out: IC50 antiproliferative, SF126", "protocol": "(§1) The human GBM cell lines used were SF126, U87 and U251. Cell lines were maintained at 37° C. and 5% CO2.\n(§2) Treatment groups were divided into 1) no treatment (control), 2) Δ^9-THC alone, 3) CBD alone, 4) Δ^9-THC and CBD combined. Positive and negative aspects of constituent interaction were determined in this 2×2 design using 2-way analysis of variance as described by (Slinker, 1998). […] Significant differences were also determined using ANOVA where suitable. […] P values <0.05 defined statistical significance."}, "U251 cells [2]": {"tested_on": "U251 cells", "experiment": "Apoptosis (annexin staining, FACS), U251", "type": "cell-based, human", "details": "U251, three days", "protocol": "Cells were grown in 6 well culture dishes and were treated with the appropriate compounds every 24 hours for three days. The cells were trypsinized, washed with PBS, and processed for labeling with fluorescein-tagged UTP nucleotide and PI by use of an Apo-Direct apoptosis kit obtained from Phoenix Flow Systems (San Diego, Calif.) and was used according to the manufacturer's protocol. The labeled cells were analyzed by flow cytometry. Cell Flow Cytometry in combination with PI and annexin staining was used to quantify the percentage of cells undergoing apoptosis in control and treatment groups. % control was calculated as annexin positive staining in treated cells/control cells×100. PI staining was used to distinguish necrotic cells from those undergoing apoptosis."}, "caspase 3, 7, 9 and PARP": {"tested_on": "caspase 3, 7, 9 and PARP", "experiment": "Caspase and PARP Western analysis, U251", "type": "cell-based, human", "details": "U251, three days; Δ9-THC 1.7 μM and/or CBD 0.4 μM; FIG. 9"}, "U251 cells [3]": {"tested_on": "U251 cells", "experiment": "Boyden chamber invasion assay, U251", "type": "cell-based, human"}, "U251 cells [4]": {"tested_on": "U251 cells", "experiment": "MTT cell proliferation assay, U251 GBM cells", "type": "cell-based, human", "details": "Homo sapiens, U-251, 168 h, seven day treatment, 95% confidence limits, read-out: IC50 antiproliferative, U251", "protocol": "as §1, §2"}, "U87 cells": {"tested_on": "U87 cells", "experiment": "MTT cell proliferation assay, U87 GBM cells", "type": "cell-based, human", "details": "Homo sapiens, U-87 MG, 168 h, seven day treatment, 95% confidence limits, read-out: IC50 antiproliferative, U87", "protocol": "as §1, §2"}, "MDA-MB231 cells [5]": {"tested_on": "MDA-MB231 cells", "experiment": "MTT cell proliferation assay, MDA-MB231", "details": "Homo sapiens, MDA-MB-231, 72 h, read-out: IC50 antiproliferative, MDA-MB231"}, "MDA-MB436 cells": {"tested_on": "MDA-MB436 cells", "experiment": "MTT cell proliferation assay, MDA-MB436", "details": "Homo sapiens, MDA-MB-436, 72 h, read-out: IC50 antiproliferative, MDA-MB436"}, "Id-1": {"tested_on": "Id-1", "experiment": "Id-1 protein expression by quantitative Western analysis, MDA-MB231", "type": "cell-based, human", "details": "MDA-MB231 cells, 1.5 μM, two days, FIG. 1E", "description": "Proteins were separated by SDS/PAGE, blotted on Immobilon membrane, and probed with anti-Id-1 and the appropriate secondary antibody. Band intensity values were obtained directly from the blot using AlphaeaseFC software (San Leandro, Calif.) or from film using Image-J (NIH, MD). As a normalization control for loading, blots were stripped and re-probed with mouse alpha-tubulin (Abeam, Cambridge, Mass.).\nThe ability of CBD to regulate the expression of key genes that control breast cancer cell aggressiveness and invasiveness was determined A potential candidate protein that could mediate the effects of CBD on both phenotypes was the helix-loop-helix protein Id-1. […] The inhibitory effect of CBD on Id-1 expression occurred at concentrations as low as 100 nM. […] The CBD concentrations effective at inhibiting Id-1 expression correlated with those used to inhibit the proliferative and invasive phenotype of MDA-MB231 cells. Furthermore, the time period needed to observe the down-regulation of Id-1 protein in the presence of CBD correlated with the inhibitory effects of CBD on the aggressiveness and invasiveness of MDA-MB231 cells (FIG. 1, panel D).\nIn order to determine the SAR between cannabinoids and the inhibition of Id-1, MDA-MB231 cells were treated for two days with multiple cannabinoid compounds and Id-1 protein levels were assessed."}, "ERK, JNK, and p38 MAPK": {"tested_on": "ERK, JNK, and p38 MAPK", "experiment": "MAPK activity (pERK, ERK, JNK, p38) by Western analysis, U251", "type": "cell-based, human", "protocol": "Cells cultured and treated in 6-well dishes were washed twice with cold PBS. Lysis buffer was added and cells lysed by freezing for 10 min at −70° C. and then thawing. Cell lysate was collected and the concentration was determined using Bradford reagent. Equal amounts of protein were heated to 90° C. in Laemmli sample buffer with β-mercaptoethanol, and loaded onto a precast SDS-PAGE gel (Bio-Rad Laboratories, Hercules, Calif.). Protein was transferred to an Immobilon membrane (Millipore, Billerica, Mass.) overnight at 2-4° C. Blots were then blocked with 5% nonfat dry milk in TBS+Tween for 1 h. Primary antibody from Millipore (rabbit anti-phospho-JNK, rabbit anti-phospho-p38, rabbit anti-phospho-ERK1/2 and rabbit anti-ERK1/2, 1 mcg/mL) in blocking buffer was then added for 1 h. The blots were then rinsed three times 10 min with TBS+Tween. Secondary antibody (Donkey Anti-Rabbit IgG, Jackson Immunoresearch, West Grove, Pa.) was then added. Blots were incubated for 45 min and then washed 4 times for 15 min each. The blots were developed with SuperSignal Femto (Pierce, Rockford, Ill.), and imaged on either a Fluorchem 8900 (Alpha Innotech, San Leandro, Calif.) or ECL Hyperfilm (Amersham-Pharmacia, Piscataway, N.J.). Band intensity values were obtained (after background subtraction) directly from the […] using AlphaeaseFC software (San Leandro, Calif.) or from film using Image-J (NIH, MD). As a normalization control for loading, blots were stripped and re-probed with mouse alpha-tubulin (Abcam, Cambridge, Mass.) and goat anti-mouse IgG (Jackson Immunoresearch) for the primary and secondary antibodies, respectively.\nThe regulation of ERK, JNK, and p38 MAPK activity plays a role in controlling cell growth and apoptosis. U251 cells were used to determine whether modulation of ERK, JNK, and p38 MAPK activity occurred."}, "U251 cells [6]": {"tested_on": "U251 cells", "experiment": "Cell cycle analysis (PI staining, FACS), U251", "type": "cell-based, human", "details": "Δ9-THC 1.7 μM and/or CBD 0.4 μM, FIG. 8", "protocol": "U251 cells were grown in Petri dishes (100 mm×15 mm) and received drug treatments for 2 days. On the third day, the cells were harvested and centrifuged at 1200 rpm for 5 minutes. The pellet was washed 1× with PBS+1% BSA, and centrifuged again. The pellet was resuspended in 0.5 ml of 2% paraformaldehyde (diluted with PBS) and left to fix overnight at room temperature. The next day the cells were pelleted and resuspended in 0.5 ml 0.3% Triton in PBS and incubated for 5 minutes at room temperature. The cells were then washed 2 times with PBS+1% BSA. The cells were finally suspended in PBS (0.1% BSA) with 10 ug/ml Propidium Iodide and 100 μg/ml RNAse. The cells were incubated for 30 minutes at room temperature before being stored at 4 C. Cell cycle was measured using a FACS Calibur using Cell Quest Pro and Modfit software."}}, "note": "pIC50: −log10 of the molar value. Like-named read-outs stand apart in the source and are kept apart here."}
{"molecule": "CCCCCc1cc(O)c2c(c1)OC(C)(C)C1CCC(C)=CC21", "note": "(stereo not drawn) [Δ^9-THC, tetrahydrocannabinol]", "values": [{"measurement": "invasion of MDA-MB231 cells", "setting": "MDA-MB231 cells [1]", "value": "significantly reduced"}, {"measurement": "pIC50", "setting": "SF126 cells; SF-126, 72 h, three day treatment, 95% confidence limits (Table 4)", "value": 5.60}, {"measurement": "pIC50", "setting": "SF126 cells; SF-126, 168 h, seven day treatment, 95% confidence limits", "value": 6.05}, {"measurement": "apoptosis in the presence of the CB2 antagonist SR144528", "setting": "U251 cells [2]; 0.5 μM SR144528, combination 1.7/0.4 μM, 2.5 μM Δ9-THC or 2.0 μM CBD, FIG. 6", "value": "partially blocked"}, {"measurement": "apoptosis in the presence of α-tocopherol", "setting": "U251 cells [2]; 20 μM α-tocopherol, combination 1.7/0.4 μM, 2.5 μM Δ9-THC or 2.0 μM CBD, FIG. 6", "value": "completely blocked"}, {"measurement": "apoptosis (annexin staining)", "setting": "U251 cells [2]; Δ9-THC 1.7 μM and/or CBD 0.4 μM, FIG. 5", "value": "did not produce significant changes"}, {"measurement": "caspase 3, 7, 9 and PARP activation", "setting": "caspase 3, 7, 9 and PARP", "value": "Small increases in the activity of caspase 7, caspase 9 and PARP but not caspase 3"}, {"measurement": "invasiveness of U251 cells", "setting": "U251 cells [3]; Boyden chamber, FIG. 10", "value": "effectively inhibited"}, {"measurement": "pIC50", "setting": "U251 cells [3]; Homo sapiens, U-251, limits 49-150, read-out: predicted IC50 to inhibit U251 cell invasiveness", "value": 7.07}, {"measurement": "pIC50", "setting": "U251 cells [4]", "value": 5.96}, {"measurement": "pIC50", "setting": "U87 cells", "value": 5.80}, {"measurement": "pIC50", "setting": "MDA-MB231 cells [5]", "value": 5.92}, {"measurement": "pIC50", "setting": "MDA-MB436 cells", "value": 5.60}, {"measurement": "inhibition of Id-1 protein (structure activity relationship)", "setting": "Id-1", "value": "No inhibition"}, {"measurement": "inhibition of Id-1 protein (structure activity relationship)", "setting": "Id-1; listed as THC", "value": "no activity"}, {"measurement": "p-ERK, higher concentrations alone compared with the combination", "setting": "ERK, JNK, and p38 MAPK; U251, three days, 2.5 μM Δ9-THC, 2.0 μM CBD, or 1.7 μM/0.4 μM combination, FIG. 6D", "value": "no effect"}, {"measurement": "p-ERK", "setting": "ERK, JNK, and p38 MAPK; U251, Δ9-THC 1.7 μM and/or CBD 0.4 μM, two days, FIG. 4", "value": "no changes"}, {"measurement": "cell cycle distribution", "setting": "U251 cells [6]", "value": "increases in the population of cells in G1 and G2/M phase and decreases in cells in S phase"}]}
